Reference: patent US9758537B2 (Achillion Pharmaceuticals, Inc., priority 2014, dated 2017)

Biological target: Human factor D (Homo sapiens (Human), UniProt P00746)
Test: Human Factor D Assay
Assay type: biochemical
Details: human factor D 80 nM, substrate Z-L-Lys-SBzl, DTNB, OD405
Method in brief: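 Serum-purified human factor D (80 nM final) preincubated with compound 5 min at room temperature in 50 mM Tris, 1M NaCl, pH 7.5. Z-L-Lys-SBzl and DTNB added at 10 μM final each; OD405 followed kinetically over 30 min. IC50 by non-linear regression of percent inhibition.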

Sequence of Human factor D (P00746 26-253): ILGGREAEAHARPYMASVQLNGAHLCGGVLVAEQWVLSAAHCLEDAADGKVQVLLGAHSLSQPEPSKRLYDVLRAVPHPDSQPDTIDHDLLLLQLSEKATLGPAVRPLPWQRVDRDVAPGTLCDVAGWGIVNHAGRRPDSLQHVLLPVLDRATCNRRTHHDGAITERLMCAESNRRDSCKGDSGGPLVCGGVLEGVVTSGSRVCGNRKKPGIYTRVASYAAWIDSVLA

CC(=O)c1cn(CC(=O)N2[C@H](C(=O)NCc3cccc(Cl)c3F)C[C@@H]3CCCC[C@@H]32)c2ccccc12 [Compound 1, (2S,3aS,7aS)-1-(2-(3-acetyl-1H-indol-1-yl)acetyl)-N-(3-chloro-2-fluorobenzyl)octahydro-1H-indole-2-carboxamide]
IC50: < 1000 nM
